Activity calls are given as the source filed them. The rule behind the calls is not given here.
Tested on: rodent carcinogenicity bioassays, tumor incidence
Experiment: CCRIS carcinogenicity studies
Summary of the method: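 NCI-built, expert-reviewed records of carcinogenicity and related test outcomes (mutagenicity, tumor promotion/inhibition) compiled from published and report sources, historical span 1985-2011, not updated.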

CCC(C)n1c(=O)[nH]c(C)c(Br)c1=O (centres undefined)
carcinogen call (Species: Mouse, Strain/Sex: CD-1/Female (80/sex/dose), Route: Oral, Dose: 0, 250, 1250, 5000 ppm in diet for 18 mo, Dose: 0, 250, 1250, 5000 ppm in diet for 18 mo): inactive; negative; purity 95% | carcinogen call (Species: Mouse, Strain/Sex: CD-1/Male (80/sex/dose), Route: Oral, Dose: 0, 250, 1250, 5000 ppm in diet for 18 mo, Dose: 0, 250, 1250, 5000 ppm in diet for 18 mo, Tumor Site: Type of Lesion: Liver: significant increase in combined hepatocellular adenomas and carcinomas at highest dose, liver lesions (neoplasti): active; positive: purity 95% | carcinogen call (Species: Rat, Strain/Sex: Crl:CD (BR)/Female (62/sex/group), Route: Oral, Dose: 0, 50, 250, 2500 ppm in diet for 2 yr, Dose: 0, 50, 250, 2500 ppm in diet for 2 yr): inactive; negative (mtd may have been exceeded); purity: 95-99% | carcinogen call (Species: Rat, Strain/Sex: Crl:CD (BR)/Male (62/sex/group), Route: Oral, Dose: 0, 50, 250, 2500 ppm in diet for 2 yr, Dose: 0, 50, 250, 2500 ppm in diet for 2 yr): inactive; negative (mtd may have been exceeded); purity: 95-99%

CN(N=O)C(=O)Oc1cccc2ccccc12
carcinogen call (Species: MOUSE, Strain/Sex: CFLP/FEMALE, Route: DERMAL, Dose: 0, 12.5, 50, 200 UG IN ACETONE 2 D/WK FOR 104 WK (STUDY DURATION: 24 MO), Dose: 0, 12.5, 50, 200 UG IN ACETONE 2 D/WK FOR 104 WK (STUDY DURATION: 24 MO), Tumor Site: Type of Lesion: SKIN: CARCINOMA): active; positive

ClC1=C(Cl)[C@]2(Cl)[C@@H]3[C@@H]4C[C@@H]([C@H]5O[C@@H]45)[C@@H]3[C@@]1(Cl)C2(Cl)Cl
carcinogen call (Species: MOUSE, Strain/Sex: B6C3F1/FEMALE, Route: ORAL, Dose: 0, 2.5, 5 PPM IN DIET FOR 80 WK (STUDY DURATION: 90-93 WK), Dose: 0, 2.5, 5 PPM IN DIET FOR 80 WK (STUDY DURATION: 90-93 WK)): inactive; negative | carcinogen call (Species: MOUSE, Strain/Sex: B6C3F1/MALE, Route: ORAL, Dose: 0, 2.5, 5 PPM IN DIET FOR 80 WK (STUDY DURATION: 90-93 WK), Dose: 0, 2.5, 5 PPM IN DIET FOR 80 WK (STUDY DURATION: 90-93 WK), Tumor Site: Type of Lesion: LIVER: HEPATOCELLULAR CARCINOMA): equivocal | carcinogen call (Species: MOUSE, Strain/Sex: B6C3F1/MALE, Route: ORAL, Dose: 0, 2.5, 5 PPM IN DIET FOR 80 WK (STUDY DURATION: 91-93 WK), Dose: 0, 2.5, 5 PPM IN DIET FOR 80 WK (STUDY DURATION: 91-93 WK), Tumor Site: Type of Lesion: LIVER: HEPATOCELLULAR CARCINOMA): active; positive | carcinogen call (Species: MOUSE, Strain/Sex: B6C3F1/MALE, Route: ORAL, Dose: 0, 10 PPM IN DIET FOR 85 WK (STUDY DURATION: 132 WK), Tumor Site: Type of Lesion: LIVER: TUMORS): active; positive | carcinogen call (Species: MOUSE, Strain/Sex: BALB/MALE, Route: ORAL, Dose: 0, 10 PPM (WT/WT) IN CORN OIL ADDED TO DIET FOR 75 WK (STUDY DURATION: 75 WK), Tumor Site: Type of Lesion: LIVER: HEPATOCELLULAR ADENOMA, HEPATOCELLULAR CARCINOMA): active; positive | carcinogen call (Species: MOUSE, Strain/Sex: C3H/MALE, Route: ORAL, Dose: 0, 10 PPM IN DIET FOR 85 WK (STUDY DURATION: 132 WK), Tumor Site: Type of Lesion: LIVER: TUMORS): active; positive | carcinogen call (Species: MOUSE, Strain/Sex: C57BL/MALE, Route: ORAL, Dose: 0, 10 PPM IN DIET FOR 85 WK (STUDY DURATION: 132 WK), Tumor Site: Type of Lesion: LIVER: TUMORS): active; positive | carcinogen call (Species: MOUSE, Strain/Sex: CF-1/MALE,FEMALE, Route: ORAL, Dose: 0, 0.1, 1, 2.5, 5, 10, 20 PPM IN DIET CONTINUOUSLY, Dose: 0, 0.1, 1, 2.5, 5, 10, 20 PPM IN DIET CONTINUOUSLY, Tumor Site: Type of Lesion: LIVER): active; positive | carcinogen call (Species: MOUSE, Strain/Sex: CF-1/MALE,FEMALE, Route: ORAL, Dose: 0, 0.1, 1.0, 10 PPM IN DIET FOR 132 WK, Dose: 0, 0.1, 1.0, 10 PPM IN DIET FOR 132 WK, Tumor Site: Type of Lesion: LIVER): active; positive | carcinogen call (Species: MOUSE, Strain/Sex: CF-1/MALE,FEMALE, Route: ORAL, Dose: 0, 1.25, 2.5, 5, 10, 20 PPM IN DIET FOR 128 WK, Dose: 0, 1.25, 2.5, 5, 10, 20 PPM IN DIET FOR 128 WK, Tumor Site: Type of Lesion: LIVER): active; positive | carcinogen call (Species: MOUSE, Strain/Sex: CF-1/MALE,FEMALE, Route: ORAL, Dose: 0, 10 PPM IN DIET FOR 2 YR OR MORE, Tumor Site: Type of Lesion: LIVER): active; positive | carcinogen call (Species: MOUSE, Strain/Sex: CF-1/MALE,FEMALE, Route: ORAL, Dose: 0, 10 PPM IN DIET FOR UP TO 110 WK, Tumor Site: Type of Lesion: LIVER: HEPATOCELLULAR TUMOR): active; positive | carcinogen call (Species: MOUSE, Strain/Sex: CF-1/MALE,FEMALE, Route: ORAL, Dose: 10 PPM IN DIET FOR 0, 2, 4, 8, 16, 32 OR 64 WK, Tumor Site: Type of Lesion: LIVER: HEPATOCELLULAR TUMOR): active; positive | carcinogen call (Species: RAT, Strain/Sex: OSBORNE-MENDEL/FEMALE, Route: ORAL, Dose: 0, 29, 65 PPM TWA, IN DIET FOR 59-80 WK (STUDY DURATION: 110-111 WK), Dose: 0, 29, 65 PPM TWA, IN DIET FOR 59-80 WK (STUDY DURATION: 110-111 WK)): inactive; negative | carcinogen call (Species: RAT, Strain/Sex: OSBORNE-MENDEL/MALE, Route: ORAL, Dose: 0, 29, 65 PPM TWA, IN DIET FOR 59-80 WK (STUDY DURATION: 110-111 WK), Dose: 0, 29, 65 PPM TWA, IN DIET FOR 59-80 WK (STUDY DURATION: 110-111 WK)): inactive; negative

CN1CCN(N=O)CC1
carcinogen call (Species: RAT, Strain/Sex: SPRAGUE-DAWLEY/FEMALE, Route: INHALATION, Dose: 0, 2.4 PPM 14.5 HR/D FOR 74 D OVER 7.5 MONTHS (STUDY DURATION: 350 D), Tumor Site: Type of Lesion: NASAL CAVITY: TUMOR): active; positive

C=CCN(N=O)C(N)=O
carcinogen call (Species: RAT, Strain/Sex: F344/FEMALE, Route: GAVAGE, Dose: 0, 13 MG/ML (TOTAL DOSE 0; 1.2 MMOL) IN 2 ML ETHYL ACETATE AND CORN OIL (1:2) 2/WK FOR 30 WK (STUDY DURATION: LIFETIME), Dose: 0, 13 MG/ML (TOTAL DOSE 0; 1.2 MMOL) IN 2 ML ETHYL ACETATE AND CORN OIL (1:2) 2/WK FOR 30 WK (STUDY DURATION: LIFETIME), Tumor Site: Type of Lesion: FORESTOMACH: SQUAMOUS CELL CARCINOMA, MAMMARY GLAND: TUMOR): active; positive | carcinogen call (Species: RAT, Strain/Sex: F344/FEMALE, Route: GAVAGE, Dose: 0, 13 MG/ML IN 0.2 ML ETHYL ACETATE AND CORN OIL 2/WK FOR 30 WK (STUDY DURATION: LIFESPAN), Tumor Site: Type of Lesion: FORESTOMACH: TUMOR, MAMMARY GLAND: TUMOR): active; positive | carcinogen call (Species: RAT, Strain/Sex: F344/MALE, Route: GAVAGE, Dose: 0, 13 MG/ML (TOTAL DOSE 0; 1.2 MMOL) IN 2 ML ETHYL ACETATE AND CORN OIL (1:2) 2/WK FOR 30 WK (STUDY DURATION: LIFETIME), Dose: 0, 13 MG/ML (TOTAL DOSE 0; 1.2 MMOL) IN 2 ML ETHYL ACETATE AND CORN OIL (1:2) 2/WK FOR 30 WK (STUDY DURATION: LIFETIME), Tumor Site: Type of Lesion: FORESTOMACH: SQUAMOUS CELL CARCINOMA, LUNG: TUMOR, COLON: TUMOR, ZYMBAL GLAND: TUMOR, Tumor Site: Type of Lesion: FORESTOMACH: SQUAMOUS CELL CARCINOMA, LUNG: TUMOR, COLON: TUMOR, ZYMBAL GLAND: TUMOR): active; positive | carcinogen call (Species: RAT, Strain/Sex: F344/MALE, Route: GAVAGE, Dose: 0, 13 MG/ML IN 0.2 ML ETHYL ACETATE AND CORN OIL 2/WK FOR 30 WK (STUDY DURATION: LIFESPAN), Tumor Site: Type of Lesion: FORESTOMACH: TUMOR, LUNG: COLON: TUMOR, ZYMBAL GLAND: TUMOR, Tumor Site: Type of Lesion: FORESTOMACH: TUMOR, LUNG: COLON: TUMOR, ZYMBAL GLAND: TUMOR): active; positive

Nc1cc(Cl)nc(C(=O)O)c1Cl
carcinogen call (Species: Mouse, Strain/Sex: CD-1/Female, Route: Oral, Dose: 0, 5, 250, 1000 mg/kg/d in feed for 18 mo, Dose: 0, 5, 250, 1000 mg/kg/d in feed for 18 mo): inactive; negative; purity was 94.5% | carcinogen call (Species: Mouse, Strain/Sex: CD-1/Male, Route: Oral, Dose: 0, 5, 250, 1000 mg/kg/d in feed for 18 mo, Dose: 0, 5, 250, 1000 mg/kg/d in feed for 18 mo): inactive; negative; purity was 94.5% | carcinogen call (Species: Rat, Strain/Sex: F344/Female, Route: Oral, Dose: 0, 5, 50, 500, 1000 mg/kg/d in feed for 24 mo, Dose: 0, 5, 50, 500, 1000 mg/kg/d in feed for 24 mo): inactive; negative; purity was 94.5% | carcinogen call (Species: Rat, Strain/Sex: F344/Male, Route: Oral, Dose: 0, 5, 50, 500, 1000 mg/kg/d in feed for 24 mo, Dose: 0, 5, 50, 500, 1000 mg/kg/d in feed for 24 mo): inactive; negative; purity was 94.5%

From PubChem BioAssay AID1259411 (Chemical Carcinogenesis Research Information System (CCRIS), 2018)
